Test system: hepatocarcinoma cell line (HepG2)
Assay: Oil Red O staining assay of triglyceride in free fatty acid-treated cells
Format: cell-based
Details: HepG2, 1 mM free fatty acid; 10, 30, 50 and 100 μM
Procedure: After the medium was removed from the Hepatocarcinoma cell line (HepG2), the cells were washed with 0.5 ml of PBS buffer solution, and the PBS buffer solution was completely removed therefrom. Then, 0.5 ml of 10% formalin was added thereto at room temperature and the resultant cells were incubated for 10 minutes.
After removing the formalin and adding 0.5 ml of fresh formalin, the cells were incubated for at least 1 hour (the cells can be stored in a formalin solution for several days before staining, and needs to be wrapped with an aluminum foil and parafilm to prevent the cells from being dried). […]
0.5 ml of an Oil Red O solution was added to the dried cells, which was then incubated at room temperature for 10 minutes. […] The debris of the staining solution was removed as much as possible, and images of the cells were obtained using a fluorescence microscope.
To the cells that had been completely dried, 0.5 ml of Oil Red O staining solution prepared by using 100% of isopropanol in a dry state was added. […] At this time, the resultant solution was mixed with a pipette up and down so that the cells were stained well with Oil Red O. Then, the mixture was transferred to a 96-well plate and the OD was measured at 500 nm. The OD value of 100% isopropanol was measured and used as a reference value (0 point).

SMILES: CC1(C)[C@@H](O)CC[C@]2(C)[C@H]3C(=O)C=C4[C@@H]5C[C@@](C)(C(=O)O)CC[C@]5(C)CC[C@@]4(C)[C@]3(C)CC[C@@H]12 [18 beta-glycyrrhetinic acid]
- content of triglyceride in Oil-red-O staining images: the higher concentration of 18 beta-glycyrrhetinic acid, the smaller content of triglyceride

From patent US10617732B2, “Composition including extract of Dolichos lablab Linne as active ingredient for preventing or ameliorating non-alcoholic fatty liver disease” (KOREA INSTITUTE OF ORIENTAL MEDICINE, priority 2014, dated 2020)
